Source: patent publication US9458437B2, “Neuroprotective peptides that inhibit interaction between palmitoyl acyl transferase zinc-finger DHHC type containing 17 (zD17) and c-jun N-terminal kinase (JNK)” (The University of British Columbia, priority 2011, dated 2016)

Key:
[1] = system: middle cerebral artery occlusion (MCAo); assay: transient MCAo in SD rats, adhesive removal test (ART); type: in vivo, Sprague-Dawley rat; parameters: unit not given here; conditions: peptide given 4 h after MCAo onset
[2] = biological target: T1, JNK3 (Rattus norvegicus, UniProt P49187); assay: kinase assay (KA) on JNK3 immunoprecipitated from cell lysates; type: cell-based; conditions: for JNK3 activity normalized to 0 h: NMDA + NIMoE
T1 construct: cell lysates were prepared and JNK was immunoprecipitated with specific antibodies; endogenous in cells; host or cells: rat primary neuronal cultures; JNK3 immunoprecipitated from lysate
T1 sequence (P49187 whole entry): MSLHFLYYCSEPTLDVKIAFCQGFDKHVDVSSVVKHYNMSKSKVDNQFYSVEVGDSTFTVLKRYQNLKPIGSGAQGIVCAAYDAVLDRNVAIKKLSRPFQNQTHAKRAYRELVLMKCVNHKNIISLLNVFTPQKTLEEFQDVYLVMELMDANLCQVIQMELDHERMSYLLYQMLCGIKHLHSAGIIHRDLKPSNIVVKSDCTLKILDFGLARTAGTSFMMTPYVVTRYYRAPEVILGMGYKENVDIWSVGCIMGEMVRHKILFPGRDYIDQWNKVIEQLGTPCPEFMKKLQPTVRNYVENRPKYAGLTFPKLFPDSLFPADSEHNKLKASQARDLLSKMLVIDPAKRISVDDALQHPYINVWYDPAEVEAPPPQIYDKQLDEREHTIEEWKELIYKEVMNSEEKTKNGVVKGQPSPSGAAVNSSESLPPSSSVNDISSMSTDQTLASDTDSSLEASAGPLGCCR
Protocol: JNK activity was measured with an in vitro kinase assay as described elsewhere (see, for e.g.: Khatlani et al., 2007). Briefly, cell lysates were prepared and JNK was immunoprecipitated with specific antibodies. The immnoprecipitates were then resuspended in 1× kinase buffer (Cell Signaling Technology™) supplemented with 200 μM ATP and 250 μg/ml GST-c-jun (1-89), and incubated at 30° C. for 30 min. Reactions were terminated by the addition of SDS-PAGE sample buffer. Phosphorylated c-jun was resolved by SDS-PAGE and detected with anti-p-c-jun.

[3] = biological target: zD17-JNK3 interaction (Rattus norvegicus, UniProt P49187); assay: co-immunoprecipitation of zD17 with JNK3 in cortical neuronal cultures; type: cell-based; parameters: diminished the co-immunoprecipitation of zD17 with JNK3; endogenous in cells; host or cells: primary cortical neurons of embryonic (E18-19) Wistar rat
zD17-JNK3 interaction, sequence (P49187 whole entry): as above
Protocol: All animal experiments were approved by the Animal Care Committee of the University of British Columbia. Primary cortical cultures were prepared from Wistar rat (UBC Animal Care Centre, Vancouver, BC, Canada) brains at embryonic days 18-19. Cultures were maintained in Neurobasal medium supplemented with B27 and 0.5 mM glutamax (Invitrogen™) as described previously (Yang et al., 2009).
The protocols for protein extraction have been described previously (Yang et al., 2009). For co-immunoprecipitation, cultured cells were washed with ice-cold PBS followed by incubation with 0.5 ml Gentle Lysis Buffer (GLB) containing 25 mM Tris-HCl (pH 7.4), 2 mM EDTA, 1 mM EGTA, 10 mM NaCl, 0.5% Triton X-100 and 10% Glycerol supplemented with the Complete Protease Inhibitor Tablets (Roche Applied Science™, Indianapolis, Ind., USA) and 1 mM PMSF. Total protein concentration was determined with the BioRad™ Protein Assay kit. Lysates were first precleaned by incubating with Protein A-Sepharose beads (Roche Applied Science™) for 1 h at 4° C., followed by incubation with indicated antibodies (>16 h at 4° C.) and protein A Sepharose bead (2 h at 4° C.). Lysates of rat brain tissues were precleaned with IgG and protein A-beads. Immunoprecipitates were washed three times with GLB buffer; boiled in 2× loading buffer with 1 mM dithiothreitol (DTT) for 3 min; and analyzed with SDS-PAGE as described previously (Yang et al., 2009). The relative intensities of the bands on immunoblots were analyzed and quantified using Image J™ (NIH).

[4] = system: Bax and Cyt.c; assay: NMDA-induced translocation of Bax and Cyt.c (mitochondria fractionation); type: cell-based, rat; conditions: neuronal cultures
Protocol: Cultured neurons were lysed on ice for 10 min in TEEN-SKM buffer containing 20 mM Tris-HCl (pH7.5), 10 mM KCl, 1.5 mM MgCl2, 1 mM EGTA, 1 mM EDTA, 1 mM DTT supplemented with the Complete Protease Inhibitor tablets. The lysates were homogenized with a 28^1/2G syringe for a total of 8 times on ice, followed by centrifugation twice at 700 g for 10 min at 4° C. The supernatant was then centrifuged at 10,000 g for 30 min at 4° C. to enrich mitochondria in the pellet. The cytosolic fraction was collected from the supernatant after further centrifugation at 100,000 g for 1 h at 4° C. 1× and 4×LB were added to the mitochondrial and cytosolic fractions, respectively. Equivalent amounts of samples were resolved by SDS-PAGE and blotted with antibodies against Cytochrome c and Bax.

[5] = system: cultured neurons; assay: axonal development in cultured neurons (Tau-1 labelling); type: cell-based, rat
Protocol: For biochemical studies, neurons were seeded in six-well culture plates with a density of 7.5×10^5 cells per well. For LDH assay and cell death detection, 24-well culture plates were used with a neuron density of 2.5×10^5 cells per well. Neurons of 14-17 days in vitro (DIV) were used for experiments. […] HEK 293 cells were maintained in DMEM (Invitrogen™) supplemented with 10% fetal bovine serum and 1% penicillin/streptomycin. For protein expression in cell lines, cells were transfected with Calcium Phosphate Transfection reagent (Promega™, San Luis Obispo, Calif., USA) and used 24 h later as described previously (Yang et al., 2009). The JNK inhibitor, L-JNKI, was purchased from Alexis Biochemicals™ (San Diego, Calif.). Thrombin was obtained from BIOPUR™ (Bubendorf, Switzerland). Other assay reagents without indication were obtained from Sigma™.
Cultured hippocampal neurons on glass coverslips were used for immunostaining. After treatments indicated in the text, neurons were fixed with 2% paraformaldehyde for 3 min at room temperature followed by permeabilization with ice-cold methanol for 10 min at −20° C. The coverslips were then washed three times with PBS and immunostained with appropriate antibodies dissolved in PBS for 1 h at room temperature. After washing three times with PBS, coverslips were incubated with Alexa-labeled secondary antibodies from Invitrogen for an additional 1 h. For mitochondrial detection, neuronal cultures were incubated at 37° C. for 30 min with 2 μM MitoTracker-TR (Invitrogen™). Coverslips were then fixed and mounted with ProLong Gold Antifade Reagent (Invitrogen™). Fluorescence was captured using a Zeiss Observer Z1™ microscope and all images were analyzed with ImageJ™ and processed using Adobe Photoshop™.

Sequence | ART ([1]; day-1) | ART ([1]; day-3) | ART ([1]; day-7) | ART ([1]; day-14) | enhancement of JNK3 activity induced by NMDA ([2]; neuronal cultures) | enhancement of the zD17-JNK3 interaction induced by NMDA/excitotoxicity [3] | JNK3 activity normalized to 0 h ([2]; 0.5 h) [%] | JNK3 activity normalized to 0 h ([2]; 1 h) [%] | JNK3 basal activity ([2]; neuronal cultures) | JNK3 basal activity, fold change to control ([2]; pretreatment of cells 1 μM for 2 h) [fold] | NMDA-induced translocation of Bax and Cyt.c [4] | axon extension (length) ([5]; NIMoE incubation, control 160.0±8.9) | effect on axon initiation and extension ([5]; chronic incubation in cultured neurons) | axon initiation rate normalized to control ([5]; incubation of cultured neurons, Tau-1 marker) [%] | zD17-JNK3 interaction (co-immunoprecipitation), baseline ([3]; no NMDA)
HRYRWLTDLLSMVTTPAAPM (NIMoEscr scrambled NIMoE) [negative control peptide resulting from a scrambled NIMoE, reference compound] | 12.63±3.14 | 34.13±6.88 | 59.13±5.67 | 81.88±4.44 | did not selectively block enhancement | did not selectively block enhancement |  |  |  |  |  |  |  |  | 
MTPLMWAAYRTHSVDPTRLL (listed as Homo sapiens) [NIMoE, peptide comprising motif-E of zD17, fused to the cell-membrane transduction domain of HIV-1 Tat for cell experiments] |  |  |  |  | selectively blocked the enhancement | selectively blocked the enhancement | 90.6±5.3 | 47.0±17.6 | no effect | 0.89±0.10 | inhibited | 161.1±13.6 | did not affect | 98.6±0.2 | no effect
WAAYRTHSVD (listed as Homo sapiens) [NIMoEsh, shorter 10mer of NIMoE, primarily the loop region of motif-E (zD17 196-205)] | 52.57±6.82 | 73.86±9.63 | 94.86±7.33 | 101.43±3.35 |  |  |  |  |  |  | inhibited |  |  |  | 
